Reference: ChEMBL document CHEMBL2384934, “Discovery of 3-phenyl-1H-5-pyrazolylamine derivatives containing a urea pharmacophore as potent and efficacious inhibitors of FMS-like tyrosine kinase-3 (FLT3)” (Bioorg Med Chem, 2013)
pIC50: −log10 of the molar value.

Assays:
[1] = biological target: T1, Receptor-type tyrosine-protein kinase FLT3 (Homo sapiens, UniProt P36888); test: biochemical; assay type: cell-based, Sf9
T1 sequence (P36888 whole entry): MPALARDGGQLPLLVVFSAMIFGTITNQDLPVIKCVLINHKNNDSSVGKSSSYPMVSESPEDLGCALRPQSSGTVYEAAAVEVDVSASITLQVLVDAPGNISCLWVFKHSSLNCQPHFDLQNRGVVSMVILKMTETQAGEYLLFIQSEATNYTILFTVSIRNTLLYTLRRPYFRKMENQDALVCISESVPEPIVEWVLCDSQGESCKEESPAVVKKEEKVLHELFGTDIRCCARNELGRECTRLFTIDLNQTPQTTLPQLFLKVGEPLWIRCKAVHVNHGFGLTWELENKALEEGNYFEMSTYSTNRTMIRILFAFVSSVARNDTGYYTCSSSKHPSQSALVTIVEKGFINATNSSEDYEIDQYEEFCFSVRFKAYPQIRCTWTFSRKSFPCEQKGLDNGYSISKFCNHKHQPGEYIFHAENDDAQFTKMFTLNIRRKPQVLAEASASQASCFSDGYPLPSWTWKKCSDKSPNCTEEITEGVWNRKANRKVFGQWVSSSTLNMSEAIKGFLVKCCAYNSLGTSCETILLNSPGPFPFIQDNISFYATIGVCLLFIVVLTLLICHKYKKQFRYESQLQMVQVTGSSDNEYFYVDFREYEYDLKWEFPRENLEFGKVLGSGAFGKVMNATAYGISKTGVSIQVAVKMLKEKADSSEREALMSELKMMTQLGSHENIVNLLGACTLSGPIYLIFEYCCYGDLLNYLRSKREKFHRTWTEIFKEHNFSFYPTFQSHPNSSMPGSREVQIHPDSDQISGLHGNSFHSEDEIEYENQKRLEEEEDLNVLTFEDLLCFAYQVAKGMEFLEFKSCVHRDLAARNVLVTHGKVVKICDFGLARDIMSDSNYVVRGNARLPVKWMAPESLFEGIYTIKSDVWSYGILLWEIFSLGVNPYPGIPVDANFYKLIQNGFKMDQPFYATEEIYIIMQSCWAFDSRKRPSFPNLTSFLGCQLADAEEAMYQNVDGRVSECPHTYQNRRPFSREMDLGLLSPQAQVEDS
Description: Inhibition of wild type GST tagged FLT3 kinase (567 to 993) (unknown origin) transfected in insect sf9 cells after 4 hrs by wallac counting analysis

MOLM-13 = test: cells; conditions: Homo sapiens, MOLM-13, 72 h
Aurora kinase A = biological target: T2, Aurora kinase A (Homo sapiens, UniProt O14965); test: biochemical
T2 sequence (O14965 whole entry): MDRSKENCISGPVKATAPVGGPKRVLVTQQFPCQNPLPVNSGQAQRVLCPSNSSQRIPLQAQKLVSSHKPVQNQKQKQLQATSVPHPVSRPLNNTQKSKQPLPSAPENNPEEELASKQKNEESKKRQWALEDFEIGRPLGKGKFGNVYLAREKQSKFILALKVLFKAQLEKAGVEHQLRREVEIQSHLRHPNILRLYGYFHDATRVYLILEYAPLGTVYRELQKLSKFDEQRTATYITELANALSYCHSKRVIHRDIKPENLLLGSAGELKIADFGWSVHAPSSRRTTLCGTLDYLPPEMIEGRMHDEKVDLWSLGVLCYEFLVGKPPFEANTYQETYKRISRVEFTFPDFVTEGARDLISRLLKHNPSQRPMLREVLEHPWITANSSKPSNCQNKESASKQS
Description: Inhibition of recombinant GST tagged Aurora A kinase (123 to 401) (unknown origin) transfected in insect sf9 cells after 90 mins by wallac counting analysis

[2] = biological target: Vascular endothelial growth factor receptor 2 (Homo sapiens, UniProt P35968); test: biochemical; assay type: cell-based, Sf9
Description: Inhibition of recombinant GST tagged VEGFR2 (789 to 1356) (unknown origin) transfected in insect sf9 cells after 120 mins by wallac counting analysis

[3] = Plasma clearance in Sprague-Dawley rat at 2 mg/kg, iv; assay type: ADME, organism-based; design: dose 2 mg/kg, route intravenous
[4] = AUC (0 to infinity) in Sprague-Dawley rat at 2 mg/kg, iv; assay type: ADME, organism-based; design: time infinity, dose 2 mg/kg, route intravenous; conditions: plasma
[5] = Half life in Sprague-Dawley rat at 2 mg/kg, iv; assay type: ADME, organism-based; design: dose 2 mg/kg, route intravenous; conditions: in vivo
[6] = Volume of distribution at steady state in Sprague-Dawley rat at 2 mg/kg, iv; assay type: ADME, organism-based; design: dose 2 mg/kg, route intravenous; conditions: in vivo, read-out: Vdss
[7] = Oral bioavailability in Sprague-Dawley rat at 10 mg/kg; assay type: ADME, organism-based; conditions: in vivo

Sequence of Vascular endothelial growth factor receptor 2 (P35968 whole entry): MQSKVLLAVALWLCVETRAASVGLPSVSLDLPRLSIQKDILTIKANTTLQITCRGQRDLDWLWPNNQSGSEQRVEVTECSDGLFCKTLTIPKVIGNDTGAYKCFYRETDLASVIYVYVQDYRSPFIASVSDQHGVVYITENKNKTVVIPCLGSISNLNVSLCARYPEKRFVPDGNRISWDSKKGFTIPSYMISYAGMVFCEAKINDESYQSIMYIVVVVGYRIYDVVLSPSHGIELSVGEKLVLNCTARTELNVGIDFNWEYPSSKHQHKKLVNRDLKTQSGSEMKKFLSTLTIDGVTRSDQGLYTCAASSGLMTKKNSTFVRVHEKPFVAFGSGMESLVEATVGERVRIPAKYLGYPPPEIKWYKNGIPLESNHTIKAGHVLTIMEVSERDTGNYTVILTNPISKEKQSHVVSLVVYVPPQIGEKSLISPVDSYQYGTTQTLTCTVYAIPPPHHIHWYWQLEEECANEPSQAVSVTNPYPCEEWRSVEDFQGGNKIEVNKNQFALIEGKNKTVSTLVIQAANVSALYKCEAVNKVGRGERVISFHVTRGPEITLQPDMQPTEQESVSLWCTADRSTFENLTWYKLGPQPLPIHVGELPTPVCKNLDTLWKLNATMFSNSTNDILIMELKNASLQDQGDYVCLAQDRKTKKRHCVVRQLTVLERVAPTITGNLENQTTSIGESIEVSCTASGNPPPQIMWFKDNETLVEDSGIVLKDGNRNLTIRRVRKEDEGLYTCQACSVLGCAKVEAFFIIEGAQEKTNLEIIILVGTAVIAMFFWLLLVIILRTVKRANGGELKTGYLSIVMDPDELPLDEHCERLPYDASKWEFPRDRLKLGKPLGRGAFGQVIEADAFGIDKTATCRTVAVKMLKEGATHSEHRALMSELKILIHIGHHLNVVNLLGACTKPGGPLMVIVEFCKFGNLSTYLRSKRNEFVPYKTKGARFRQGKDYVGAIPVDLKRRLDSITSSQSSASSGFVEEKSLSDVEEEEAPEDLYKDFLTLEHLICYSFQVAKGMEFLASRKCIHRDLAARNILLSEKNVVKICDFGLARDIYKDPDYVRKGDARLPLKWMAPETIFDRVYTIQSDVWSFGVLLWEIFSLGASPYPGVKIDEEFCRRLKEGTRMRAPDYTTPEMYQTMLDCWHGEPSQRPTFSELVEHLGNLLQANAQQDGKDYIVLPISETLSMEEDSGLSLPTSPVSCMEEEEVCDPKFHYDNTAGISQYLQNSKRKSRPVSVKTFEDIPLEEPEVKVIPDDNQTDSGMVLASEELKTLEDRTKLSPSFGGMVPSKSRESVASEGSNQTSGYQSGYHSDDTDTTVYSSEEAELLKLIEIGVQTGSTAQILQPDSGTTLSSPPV

Row | Structure (SMILES) | pIC50 [1] | GI50 (MOLM-13) [nM] | pIC50 (Aurora kinase A) | pIC50 [2] | clearance [3] [mL/min/kg] | AUC(0-inf) [4] [ng·h/mL] | half-life [5] [min] | Vd [6] [L/kg] | bioavailability [7] [%]
1 | Cc1nc(Nc2cc(-c3ccc(CNC(=O)Nc4cc(C)on4)cc3)n[nH]2)cc(N2CCN(C)CC2)n1 | 7.68 | 9 | 6.49 | 7.00 | – | – | – | – | –
2 | CN1CCN(Cc2ccc(C(=O)Nc3cc(-c4ccc(CNC(=O)Nc5ccccc5)cc4)n[nH]3)cc2)CC1 | 7.66 | 4 | < 6.00 | 7.09 | – | – | – | – | –
3 | Cc1nc(Nc2cc(-c3ccc(CNC(=O)Nc4cc(C(C)(C)C)on4)cc3)n[nH]2)cc(N2CCN(CCO)CC2)n1 | 7.02 | 5 | 6.31 | 7.30 | – | – | – | – | –
4 | CN1CCN(c2ccc(C(=O)Nc3cc(-c4ccc(NC(=O)NC5CC5)cc4)n[nH]3)cc2)CC1 | 7.28 | 18 | < 6.00 | 6.52 | – | – | – | – | –
5 | CN1CCN(c2ccc(C(=O)Nc3cc(-c4cccc(NS(=O)(=O)c5ccccc5)c4)n[nH]3)cc2)CC1 | 7.96 | 21 | – | – | – | – | – | – | –
6 | Cc1nc(Nc2cc(-c3ccc(CNC(=O)Nc4cc(C(C)(C)C)on4)cc3)n[nH]2)cc(N2CCNCC2)n1 | 7.59 | 8 | 6.15 | 7.07 | – | – | – | – | –
7 | CCNC(=O)Nc1ccc(-c2cc(NC(=O)c3ccc(N4CCN(C)CC4)cc3)[nH]n2)cc1 | 7.03 | 33 | < 6.00 | 7.00 | – | – | – | – | –
8 | O=C(NCc1ccc(-c2cc(NC(=O)c3ccc(OCCN4CCCC4)cc3)[nH]n2)cc1)OCc1ccccc1 | – | 2 | – | – | – | – | – | – | –
9 | CN1CCN(c2ccc(C(=O)Nc3cc(-c4ccc(NC(=O)N5CCCC5)cc4)n[nH]3)cc2)CC1 | 7.15 | 37 | < 6.00 | < 6.00 | – | – | – | – | –
10 | CN1CCN(c2ccc(C(=O)Nc3cc(-c4ccc(NC(=O)Nc5ccccn5)cc4)n[nH]3)cc2)CC1 | 7.40 | 42 | 6.21 | 7.14 | – | – | – | – | –
11 | CN1CCN(c2ccc(C(=O)Nc3cc(-c4ccc(NC(=O)Nc5ccccc5)cc4)n[nH]3)cc2)CC1 | 7.89 | 6 | 6.48 | 7.59 | – | – | – | – | –
12 | CN1CCN(c2ccc(C(=O)Nc3cc(-c4ccc(NC(=O)Nc5cccnc5)cc4)n[nH]3)cc2)CC1 | 7.13 | 22 | 6.52 | 6.72 | – | – | – | – | –
13 | Cc1nc(Nc2cc(-c3ccc(NC(=O)Nc4ccccc4)cc3)n[nH]2)cc(N2CCN(C)CC2)n1 | 6.55 | 160 | 6.30 | 6.21 | – | – | – | – | –
14 | Cc1nc(Nc2cc(-c3ccc(CNC(=O)Nc4cccc(Cl)c4)cc3)n[nH]2)cc(N2CCNCC2)n1 | 7.59 | 18 | 6.10 | 7.42 | – | – | – | – | –
15 | Cc1nc(Nc2cc(-c3ccc(CNC(=O)Nc4cc(C)on4)cc3)n[nH]2)cc(N2CCN(CCO)CC2)n1 | 7.77 | 16 | 7.01 | 6.92 | – | – | – | – | –
16 | Cc1nc(Nc2cc(-c3ccc(CNC(=O)Nc4cc(C(C)(C)C)on4)cc3)n[nH]2)cc(N2CCN(C)CC2)n1 | 7.46 | 3 | 6.92 | 7.92 | – | – | – | – | –
17 | Cc1cnc(NC(=O)Nc2ccc(-c3cc(NC(=O)c4ccc(N5CCN(C)CC5)cc4)[nH]n3)cc2)s1 | 7.30 | 9 | 7.19 | 7.46 | – | – | – | – | –

Next, values leading:

Row | pIC50 [1] | GI50 (MOLM-13) [nM] | pIC50 (Aurora kinase A) | pIC50 [2] | clearance [3] [mL/min/kg] | AUC(0-inf) [4] [ng·h/mL] | half-life [5] [min] | Vd [6] [L/kg] | bioavailability [7] [%] | Structure (SMILES)
18 | 8.40 | 3 | < 6.00 | 7.74 | 17.2 | 2120 | 660 | 8 | – | CN1CCN(Cc2ccc(C(=O)Nc3cc(-c4ccc(CNC(=O)Nc5cc(C(C)(C)C)on5)cc4)n[nH]3)cc2)CC1
19 | 8.05 | 3 | 6.12 | 7.27 | – | – | – | – | – | O=C(NCc1ccc(-c2cc(NC(=O)c3ccc(OCCN4CCOCC4)cc3)[nH]n2)cc1)Nc1ccccc1
20 | 7.72 | 2 | 6.80 | 7.66 | – | – | – | – | – | CC(C)(C)c1cc(NC(=O)Nc2ccc(-c3cc(NC(=O)c4ccc(OCCN5CCOCC5)cc4)[nH]n3)cc2)no1
21 | 8.22 | 3 | 6.92 | 7.51 | – | – | – | – | – | Cc1cc(NC(=O)Nc2ccc(-c3cc(NC(=O)c4ccc(N5CCN(C)CC5)cc4)[nH]n3)cc2)no1
22 | 7.52 | 5 | 7.28 | 7.92 | – | – | – | – | – | CN1CCN(c2ccc(C(=O)Nc3cc(-c4ccc(NC(=O)Nc5cc(C(C)(C)C)on5)cc4)n[nH]3)cc2)CC1
23 | 7.80 | 3 | < 6.00 | 7.15 | – | – | – | – | – | O=C(NCc1ccc(-c2cc(NC(=O)c3ccc(OCCN4CCOCC4)cc3)[nH]n2)cc1)Nc1ccc(Cl)cc1
24 | 8.05 | 1 | 6.60 | 7.42 | – | – | – | – | – | Cc1cc(NC(=O)Nc2ccc(-c3cc(NC(=O)c4ccc(N5CCN(C)CC5)cc4)[nH]n3)cc2C)no1
25 | 7.82 | 2 | 7.33 | 7.92 | – | – | – | – | – | CC(C)(C)c1cc(NC(=O)Nc2ccc(-c3cc(NC(=O)c4ccc(OCCN5CCCC5)cc4)[nH]n3)cc2)no1
26 | 8.10 | 1 | 6.80 | 7.92 | – | – | – | – | – | CN1CCN(Cc2ccc(C(=O)Nc3cc(-c4ccc(NC(=O)Nc5cc(C(C)(C)C)on5)cc4)n[nH]3)cc2)CC1
27 | – | – | – | – | 11.3 | 3020 | 1020 | 10 | – | Cc1cc(-c2cc(NC(=O)c3ccc(CN4CCN(C)CC4)cc3)[nH]n2)ccc1NC(=O)Nc1cc(C(C)(C)C)on1
28 | 7.18 | 5 | < 6.00 | 6.89 | – | – | – | – | – | O=C(NCc1ccc(-c2cc(NC(=O)c3ccc(OCCN4CCOCC4)cc3)[nH]n2)cc1)Nc1ccc(F)cc1
29 | 7.89 | 2 | 6.03 | 7.30 | – | – | – | – | – | Cc1cc(NC(=O)NCc2ccc(-c3cc(NC(=O)c4ccc(N5CCN(C)CC5)cc4)[nH]n3)cc2)no1
30 | 6.41 | 7 | 6.22 | < 6.00 | – | – | – | – | – | Cc1cc(NC(=O)Nc2ccc(-c3cc(NC(=O)c4ccc(N5CCN(C)CC5)cc4)[nH]n3)cc2Cl)no1
31 | 7.70 | 8 | 7.16 | 7.57 | 13.9 | 2860 | 318 | 4.7 | 4 | Cc1cc(-c2cc(NC(=O)c3ccc(OCCN4CCOCC4)cc3)[nH]n2)ccc1NC(=O)Nc1cc(C(C)(C)C)on1
